Data set [1] can be described thus: Antiproliferative activity p53 -deficient human HCT116 cells after 16 hrs by BrdU proliferation assay. It counts as functional, cell-based. The note with it: HCT-116, 16 h.
Data set [2] in a line: Drug metabolism in rat hepatocytes assessed as oxidative metabolite M2 formation at 10 uM after 2 hrs by LC/MS analysis. Format: ADME, cell-based, Hepatocyte.
A short description of data set [3]: Antitumor activity against human HCT116 cells xenografted in athymic nude mouse assessed as tumor growth inhibition at 100 mg/kg, po qd starting on day 10 of tumor implantation. It counts as functional. The note with it: HCT-116, 240 h, read-out: TGI. Background: A xenograft is tissue or cells of one species grown in another, often human tumour cells in immunodeficient mice.

Data set [4] is described as follows: Drug metabolism in cynomolgus monkey hepatocytes assessed as oxidative metabolite M2 formation at 10 uM after 2 hrs by LC/MS analysis. Format: ADME, cell-based, Macaca fascicularis, Hepatocyte.
The next data set is described as follows: animal or person. As to conditions: Homo sapiens, HCT-116, po, 240 h.
The nature of data set [5]: Drug metabolism in cynomolgus monkey hepatocytes assessed as demethylated metabolite M3 formation at 10 uM after 2 hrs by LC/MS analysis. Format: ADME, cell-based, Macaca fascicularis, Hepatocyte.
Data set [6] addresses T1, E3 ubiquitin-protein ligase Mdm2 (Homo sapiens, UniProt Q00987). Kind of data set: Binding affinity to human MDM2 by isothermal titration calorimetry. (In ITC the heat of successive injections is recorded.)
Data set [7] can be described thus: Clearance in iv dosed dog. As to conditions: in vivo. It counts as ADME, organism-based, Canis lupus familiaris.
Data set [8] concerns the target T2, CYP3A4 (Homo sapiens, UniProt P08684). In words: Inhibition of CYP3A4 (unknown origin) at 3 uM. Format: ADME.
Data set [9] is described as follows: Antiproliferative activity against human HCT116 cells expressing p53 wild type after 16 hrs by BrdU proliferation assay. As to conditions: HCT-116, 16 h. Format: functional, cell-based.
A short description of data set [10]: Drug metabolism in dog hepatocytes assessed as oxidative metabolite M2 formation at 10 uM after 2 hrs by LC/MS analysis. Format: ADME, cell-based, Canis lupus familiaris, Hepatocyte.
Data set [11] can be described thus: Drug metabolism in human hepatocytes assessed as demethylated metabolite M3 formation at 10 uM after 2 hrs by LC/MS analysis. It counts as ADME, cell-based, Hepatocyte.
Data set [12] has as its target T1, E3 ubiquitin-protein ligase Mdm2.
For a further data set, the target named is T3, PXR (NR1I2) (Homo sapiens, UniProt O75469).
T3 sequence (O75469 whole entry): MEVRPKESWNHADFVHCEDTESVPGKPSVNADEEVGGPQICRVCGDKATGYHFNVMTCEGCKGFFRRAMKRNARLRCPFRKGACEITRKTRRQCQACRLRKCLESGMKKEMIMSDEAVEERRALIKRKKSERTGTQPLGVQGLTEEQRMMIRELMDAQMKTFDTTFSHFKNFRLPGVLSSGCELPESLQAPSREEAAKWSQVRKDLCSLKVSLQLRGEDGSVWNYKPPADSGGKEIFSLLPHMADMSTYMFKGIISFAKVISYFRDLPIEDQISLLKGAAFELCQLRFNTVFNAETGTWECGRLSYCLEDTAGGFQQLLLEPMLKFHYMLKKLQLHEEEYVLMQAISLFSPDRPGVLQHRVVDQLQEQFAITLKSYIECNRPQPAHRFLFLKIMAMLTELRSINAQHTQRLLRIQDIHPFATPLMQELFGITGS
In words: Activation of human PXR at 2 uM relative to control. It counts as ADME. As to conditions: read-out: Activity.

The target of data set [13] is T2, CYP3A4. In words: Time-dependent inhibition of CYP3A4 (unknown origin) assessed as remaining activity at 10 uM after 30 mins. Format: ADME. As to conditions: read-out: Activity.
In a further data set the test system is Mus musculus. In words: Toxicity in human SJSA1 cells xenografted athymic nude mouse assessed as body weight loss at 10 to 50 mg/kg, po qd for 4 days. The note with it: in vivo, 96 h. Details: dose 10-50 mg/kg, route oral. It counts as organism-based, SJSA-1.
Data set [14] is described as follows: Oral bioavailability in dog. Format: ADME, organism-based, Canis lupus familiaris. As to conditions: in vivo.
A short description of data set [15]: Clearance in iv dosed mouse. As to conditions: in vivo. Format: ADME, organism-based.
A further data set deals with SJSA-1. Kind of data set: Antitumor activity against human SJSA1 cells xenografted in athymic nude mouse assessed as complete tumor regression at 25 to 50 mg/kg, po qd for 4 days measured after 30 days. Format: functional, organism-based.
Data set [16] can be described thus: Drug metabolism in rat hepatocytes assessed as demethylated metabolite M3 formation at 10 uM after 2 hrs by LC/MS analysis. Format: ADME, cell-based, Hepatocyte.
The nature of data set [17]: Drug metabolism in human hepatocytes assessed as oxidative metabolite M2 formation at 10 uM after 2 hrs by LC/MS analysis. It counts as ADME, cell-based, Hepatocyte.
The nature of data set [18]: Oral bioavailability in mouse. Format: ADME, organism-based. As to conditions: in vivo.
Data set [19] in a line: Drug metabolism in dog hepatocytes assessed as demethylated metabolite M3 formation at 10 uM after 2 hrs by LC/MS analysis. It counts as ADME, cell-based, Canis lupus familiaris, Hepatocyte.

Data on 1 compound can be found in ChEMBL document CHEMBL3407331, “Discovery of AM-7209, a potent and selective 4-amidobenzoic acid inhibitor of the MDM2-p53 interaction” (J Med Chem, 2014).

The IC50 is the midpoint of a concentration-inhibition curve. By ED50 is commonly meant the dose that gives a 50% effect, or the effect in half of the subjects. A word on the Kd: it is a measure of binding affinity in units of concentration. In general, clearance refers to a measure of how efficiently the substance is removed, as volume per time. By inhibition is commonly meant the share of the control response that was lost under treatment. What is called bioavailability is the share of a dose that reaches the circulation, judged against a reference dose that is usually intravenous.

The source made the active and inactive calls. The rule behind the calls is not given here.

T1 sequence (Q00987 whole entry): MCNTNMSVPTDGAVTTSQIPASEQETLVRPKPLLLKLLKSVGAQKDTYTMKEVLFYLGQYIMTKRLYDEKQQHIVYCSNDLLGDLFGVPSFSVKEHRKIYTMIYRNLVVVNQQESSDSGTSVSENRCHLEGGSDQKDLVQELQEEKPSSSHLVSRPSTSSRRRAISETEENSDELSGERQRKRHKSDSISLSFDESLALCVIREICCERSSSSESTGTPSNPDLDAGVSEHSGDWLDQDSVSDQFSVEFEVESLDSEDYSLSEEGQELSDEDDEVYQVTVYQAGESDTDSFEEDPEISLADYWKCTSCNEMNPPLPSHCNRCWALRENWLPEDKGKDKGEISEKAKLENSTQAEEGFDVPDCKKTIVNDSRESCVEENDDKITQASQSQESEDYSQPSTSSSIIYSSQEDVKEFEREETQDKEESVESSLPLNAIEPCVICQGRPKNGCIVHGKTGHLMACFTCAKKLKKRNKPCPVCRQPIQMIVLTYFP
T2 sequence (P08684 whole entry): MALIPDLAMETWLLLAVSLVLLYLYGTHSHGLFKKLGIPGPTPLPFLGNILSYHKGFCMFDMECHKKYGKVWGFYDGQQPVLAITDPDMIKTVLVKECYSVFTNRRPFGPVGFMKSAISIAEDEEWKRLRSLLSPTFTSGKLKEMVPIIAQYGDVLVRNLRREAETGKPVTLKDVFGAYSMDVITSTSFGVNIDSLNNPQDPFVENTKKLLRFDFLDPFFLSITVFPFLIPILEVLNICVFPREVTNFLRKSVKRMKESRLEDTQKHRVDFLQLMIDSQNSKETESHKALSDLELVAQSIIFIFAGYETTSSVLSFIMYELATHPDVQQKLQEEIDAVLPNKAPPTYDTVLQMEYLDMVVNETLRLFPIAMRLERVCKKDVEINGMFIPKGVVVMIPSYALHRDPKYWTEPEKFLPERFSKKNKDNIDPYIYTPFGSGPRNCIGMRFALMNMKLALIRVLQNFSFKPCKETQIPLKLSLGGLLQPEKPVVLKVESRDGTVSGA

As for `COc1cc(NC(=O)C[C@@]2(C)C[C@H](c3cccc(Cl)c3)[C@@H](c3ccc(Cl)c(F)c3)N([C@H](CS(=O)(=O)C(C)(C)C)C3CC3)C2=O)ccc1C(=O)O`, the figures for the 50% inhibitory concentration (IC50) in data set [1], in data set [9] and in data set [12] were over 25 µM, 2 nM and 0.6 nM, respectively. Also, the Drug metabolism result in data set [2], in data set [4], in [5], in data set [10], in data set [11] and in data set [16] was “metabolite_detected” throughout. The Drug metabolism entry in data set [17] and in data set [19] was “metabolite_detected” each time. In addition, the inhibition in vivo at 100 mg/kg in data set [3] stood at 100%. Further, the ED50 in “animal or person” came out at 10 mg/kg. In addition, the affinity in [6], expressed as Kd, was 0.038 nM. Also, the clearance is 11.5 mL/min/kg in data set [7] and 0.433 mL/min/kg in data set [15]. For the same compound, the inhibition at 3 µM against CYP3A4 [8] is under 10%. Moreover, the activity at 2 µM on PXR (NR1I2) was determined as 0%. For the same compound, at CYP3A4 [13], the activity at 0.5 h, 10 µM was determined as 63%. The Activity result in the data set on Mus musculus was “<= 5%”. The bioavailability in data set [14] worked out at 45%; in data set [18], 30%. Further, in the data set on SJSA-1, the Activity result is “Active”.
